Source: patent publication US20110129455A1, “INHIBITORS OF AKT ACTIVITY” (priority 2008, published 2011)

Biological target: T1, full length AKT1 (Homo sapiens, UniProt P31749)
T1 construct: Full-length human AKT1 gene was amplified by PCR; His tag (from vector pFastBacHTb; N-terminal position is own knowledge of the vector) (N); made in house; host or cells: baculovirus; Sf9 / T. ni insect cells
Test: Full-length AKT enzyme assay (substrate phosphorylation, SPA)
Assay type: biochemical
Conditions: in at least one experimental run; pIC50 = -log(IC50), IC50 in molar units; 4 uM ATP, 10 nM activated AKT enzyme; read-out: pIC50 against full length AKT1 (converted)
Text: Cloning of Full-Length Human (FL) AKT1:
Full-length human AKT1 gene was amplified by PCR from a plasmid containing myristylated-AKT1-ER (gift from Robert T. Abraham, Duke University under MTA, described in Klippel et al. in Molecular and Cellular Biology 1998 Volume 18 p. 5699) using the 5′ primer: SEQ. ID NO: 2
5′ […] 3′ and the 3′ primer: SEQ. ID NO: 3 […] 3′. The 5′ primer included a BamHl site and the 3′primer included an Xhol site for cloning purposes. The resultant PCR product was subcloned in pcDNA3 as a BamHl/Xhol fragment. A mutation in the sequence (TGC) coding for a Cysteine^25 was converted to the wild-type AKT1 sequence (CGC) coding for an Arginine^25 by site-directed mutagenesis using the QuikChange® Site Directed Mutagenesis Kit (Stratagene). The AKT1 mutagenic primer: SEQ. ID NO: 4 5′ […] and selection primer: SEQ. […] For expression/purification purposes, AKT1 was isolated as a BamHl/Xhol fragment and cloned into the BamHl/Xhol sites of pFastbacHTb (Invitrogen).
Expression was done using the BAC-to-BAC Baculovirus Expression System from Invitrogen (catalog #10359-016). […]
Compounds of the present invention were tested for AKT 1, 2, and 3 protein serine kinase inhibitory activity in substrate phosphorylation assays. […] Substrate phosphorylation was detected by the following procedure. […]

T1 sequence (P31749 whole entry): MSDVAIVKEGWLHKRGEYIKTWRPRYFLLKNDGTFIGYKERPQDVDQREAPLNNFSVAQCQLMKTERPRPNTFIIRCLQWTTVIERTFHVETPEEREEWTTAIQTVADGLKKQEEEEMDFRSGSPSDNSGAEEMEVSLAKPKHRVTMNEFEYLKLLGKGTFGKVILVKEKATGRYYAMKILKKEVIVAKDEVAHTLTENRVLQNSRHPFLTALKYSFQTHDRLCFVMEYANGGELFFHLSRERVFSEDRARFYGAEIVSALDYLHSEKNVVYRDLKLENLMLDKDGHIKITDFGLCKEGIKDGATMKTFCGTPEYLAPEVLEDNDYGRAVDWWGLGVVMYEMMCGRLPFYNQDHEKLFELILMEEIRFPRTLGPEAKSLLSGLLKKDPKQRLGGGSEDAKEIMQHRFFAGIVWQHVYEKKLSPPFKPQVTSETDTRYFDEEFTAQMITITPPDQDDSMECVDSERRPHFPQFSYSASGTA

- IC50: 6.31 nM
SMILES: Cn1nccc1-n1cc(C(=O)N[C@H](CN)Cc2cccc(F)c2)cc1Cl [Example 2, N-{(1S)-2-amino-1-[(3-fluorophenyl)methyl]ethyl}-5-chloro-1-(1-methyl-1H-pyrazol-5-yl)-1H-pyrrole-3-carboxamide]
